Experimental findings from US20230139171A1 (SITA Information Networking Computing UK Limited, priority 2019, published 2023) are described below.

Common to all, as to type: cell-based
For test [1], the target named is T1, human TLR7 (Homo sapiens, UniProt Q9NYK1).
T1 construct: host or cells: HEK-Blue cells
T1 sequence (Q9NYK1 27-1049): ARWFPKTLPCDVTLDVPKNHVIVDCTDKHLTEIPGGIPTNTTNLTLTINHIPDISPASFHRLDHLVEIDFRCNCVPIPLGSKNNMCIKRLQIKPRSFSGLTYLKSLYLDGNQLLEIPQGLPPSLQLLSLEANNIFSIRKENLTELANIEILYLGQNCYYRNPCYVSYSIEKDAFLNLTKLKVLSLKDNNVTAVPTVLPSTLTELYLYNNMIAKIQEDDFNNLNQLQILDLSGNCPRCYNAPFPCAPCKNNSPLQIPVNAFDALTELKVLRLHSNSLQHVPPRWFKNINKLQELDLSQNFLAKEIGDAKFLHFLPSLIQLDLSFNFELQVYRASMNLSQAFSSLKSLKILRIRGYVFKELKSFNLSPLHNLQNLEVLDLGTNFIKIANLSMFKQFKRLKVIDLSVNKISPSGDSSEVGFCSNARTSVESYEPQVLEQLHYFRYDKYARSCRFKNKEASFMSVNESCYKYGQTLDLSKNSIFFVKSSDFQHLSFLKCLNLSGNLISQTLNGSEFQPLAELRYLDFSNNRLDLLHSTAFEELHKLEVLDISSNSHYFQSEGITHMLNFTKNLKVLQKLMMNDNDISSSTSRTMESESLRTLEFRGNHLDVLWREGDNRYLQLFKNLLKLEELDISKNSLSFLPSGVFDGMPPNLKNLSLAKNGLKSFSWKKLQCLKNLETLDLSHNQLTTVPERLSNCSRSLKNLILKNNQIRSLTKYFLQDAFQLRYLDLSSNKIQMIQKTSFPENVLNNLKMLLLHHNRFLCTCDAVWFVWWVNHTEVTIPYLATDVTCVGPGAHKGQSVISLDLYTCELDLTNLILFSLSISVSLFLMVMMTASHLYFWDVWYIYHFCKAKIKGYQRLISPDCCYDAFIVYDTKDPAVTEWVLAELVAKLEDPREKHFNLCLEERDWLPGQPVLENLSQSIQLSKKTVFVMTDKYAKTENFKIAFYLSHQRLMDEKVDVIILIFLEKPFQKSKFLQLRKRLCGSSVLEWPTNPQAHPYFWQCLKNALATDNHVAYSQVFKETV
Put plainly: TLR7 inhibition reporter assay (HEK-Blue cells, SEAP reporter, gardiquimod stimulation). The conditions noted are these: HEK-Blue cells overexpressing human TLR7, SEAP reporter, gardiquimod 7.5 μM; read-out: TLR7 IC50. The method in brief:
(§1)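 Human TLR7/8/9 HEK-Blue reporter lines; dose range 0.05 nM–50 μM; 30 min RT preincubation; stimulus gardiquimod 7.5 μM / R848 15.9 μM / ODN2006 5 nM respectively; 22 h, 37 °C; SEAP detected colorimetrically.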
For orientation: In a reporter assay the amount or activity of a reporter protein is the signal.

The target of test [2] is T2, human TLR8 (Homo sapiens, UniProt Q9NR97).
T2 construct: host or cells: HEK-Blue cells
T2 sequence (Q9NR97 27-1041): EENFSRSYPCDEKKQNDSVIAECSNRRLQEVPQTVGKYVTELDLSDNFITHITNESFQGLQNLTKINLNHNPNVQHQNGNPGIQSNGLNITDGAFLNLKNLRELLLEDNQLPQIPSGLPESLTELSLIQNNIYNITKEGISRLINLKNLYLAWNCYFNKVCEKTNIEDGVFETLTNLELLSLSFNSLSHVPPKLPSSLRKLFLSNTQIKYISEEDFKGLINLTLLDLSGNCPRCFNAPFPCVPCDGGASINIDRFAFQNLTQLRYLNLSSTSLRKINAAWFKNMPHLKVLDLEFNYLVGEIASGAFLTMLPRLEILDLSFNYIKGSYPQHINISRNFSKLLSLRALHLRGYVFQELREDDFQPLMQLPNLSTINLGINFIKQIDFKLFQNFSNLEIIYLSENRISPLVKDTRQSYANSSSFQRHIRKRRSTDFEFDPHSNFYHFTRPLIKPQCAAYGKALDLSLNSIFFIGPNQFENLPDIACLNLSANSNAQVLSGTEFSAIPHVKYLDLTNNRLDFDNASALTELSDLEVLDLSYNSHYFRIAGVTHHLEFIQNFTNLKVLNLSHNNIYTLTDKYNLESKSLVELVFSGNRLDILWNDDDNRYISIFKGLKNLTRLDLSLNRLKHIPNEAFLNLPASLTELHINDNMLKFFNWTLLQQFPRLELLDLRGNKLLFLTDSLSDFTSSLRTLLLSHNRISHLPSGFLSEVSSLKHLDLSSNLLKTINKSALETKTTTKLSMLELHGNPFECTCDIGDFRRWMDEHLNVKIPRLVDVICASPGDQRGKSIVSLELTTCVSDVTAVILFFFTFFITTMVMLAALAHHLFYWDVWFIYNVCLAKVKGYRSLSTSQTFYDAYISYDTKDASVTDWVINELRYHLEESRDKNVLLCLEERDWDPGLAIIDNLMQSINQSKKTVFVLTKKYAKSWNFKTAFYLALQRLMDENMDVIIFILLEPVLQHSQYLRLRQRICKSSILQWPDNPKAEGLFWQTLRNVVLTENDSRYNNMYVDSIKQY
The test can be described thus: TLR8 inhibition reporter assay (HEK-Blue cells, SEAP reporter, R848 stimulation). The settings on record: HEK-Blue cells overexpressing human TLR8, SEAP reporter, R848 15.9 μM; read-out: TLR8 IC50. The method in brief:
as §1

The target in test [3] is T3, human TLR9 (Homo sapiens, UniProt Q9NR96).
T3 construct: host or cells: HEK-Blue cells
T3 sequence (Q9NR96 26-1032): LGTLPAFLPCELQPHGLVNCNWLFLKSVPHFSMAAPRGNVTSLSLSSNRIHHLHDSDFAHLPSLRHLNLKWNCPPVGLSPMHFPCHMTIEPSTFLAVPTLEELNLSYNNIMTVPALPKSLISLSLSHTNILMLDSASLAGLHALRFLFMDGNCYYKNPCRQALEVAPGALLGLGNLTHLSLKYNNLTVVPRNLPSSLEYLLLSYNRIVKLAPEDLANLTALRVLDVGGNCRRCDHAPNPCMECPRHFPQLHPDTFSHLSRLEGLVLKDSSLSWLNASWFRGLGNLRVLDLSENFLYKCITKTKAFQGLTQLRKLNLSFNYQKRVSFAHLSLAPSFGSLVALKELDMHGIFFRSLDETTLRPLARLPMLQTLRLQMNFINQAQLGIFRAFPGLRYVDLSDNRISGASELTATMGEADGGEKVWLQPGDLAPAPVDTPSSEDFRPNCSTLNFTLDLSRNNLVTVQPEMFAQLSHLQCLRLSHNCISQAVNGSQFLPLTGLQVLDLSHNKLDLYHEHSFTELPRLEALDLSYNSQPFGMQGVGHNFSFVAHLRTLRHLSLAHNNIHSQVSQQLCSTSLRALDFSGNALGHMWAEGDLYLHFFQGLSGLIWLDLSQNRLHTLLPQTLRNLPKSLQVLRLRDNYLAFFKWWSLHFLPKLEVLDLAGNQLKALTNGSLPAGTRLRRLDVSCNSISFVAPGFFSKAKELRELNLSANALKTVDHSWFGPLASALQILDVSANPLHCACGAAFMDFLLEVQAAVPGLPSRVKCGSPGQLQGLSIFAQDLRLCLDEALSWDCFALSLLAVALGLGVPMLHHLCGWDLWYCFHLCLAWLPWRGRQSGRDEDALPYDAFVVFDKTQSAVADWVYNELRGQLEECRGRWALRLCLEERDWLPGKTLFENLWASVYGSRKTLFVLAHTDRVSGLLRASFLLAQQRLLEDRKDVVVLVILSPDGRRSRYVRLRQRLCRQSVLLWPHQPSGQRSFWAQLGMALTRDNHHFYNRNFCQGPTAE
Put plainly: TLR9 inhibition reporter assay (HEK-Blue cells, SEAP reporter, ODN2006 stimulation). The conditions noted are these: HEK-Blue cells overexpressing human TLR9, SEAP reporter, ODN2006 5 nM. The method in brief: as §1

For `Cc1cc(-c2[nH]c3sc(C4CCN(CC(=O)N(C)C)CC4)nc3c2C(C)C)cn2ncnc12` [Example 17, 2-(4-(6-isopropyl-5-(8-methyl-[1,2,4]triazolo[1,5-a]pyridin-6-yl)-4H-pyrrolo[3,2-d]thiazol-2-yl)piperidin-1-yl)-N,N-dimethylacetamide], the values for the IC50 in test [1], in test [2] and in test [3] were 8.08 nM, 8.27 nM and 3430 nM, respectively.

Regarding `Cc1cc(-c2[nH]c3sc(C4CCN(CC(C)(C)O)CC4)nc3c2C(C)C)cn2ncnc12` [Example 18, 1-(4-(6-isopropyl-5-(8-methyl-[1,2,4]triazolo[1,5-a]pyridin-6-yl)-4H-pyrrolo[3,2-d]thiazol-2-yl)piperidin-1-yl)-2-methylpropan-2-ol], the IC50 in test [1] was 5.69 nM; in test [2], 2.57 nM; in test [3] it was 3740 nM.

On to `Cc1cc(-c2[nH]c3sc(C4CCN(C(=O)CN(C)C)CC4)nc3c2C(C)C)cn2ncnc12` [Example 19, 2-(dimethylamino)-1-(4-(6-isopropyl-5-(8-methyl-[1,2,4]triazolo[1,5-a]pyridin-6-yl)-4H-pyrrolo[3,2-d]thiazol-2-yl)piperidin-1-yl)ethan-1-one], for which the IC50 in test [1] was 1.4 nM; in test [2], 12 nM; in test [3], 5940 nM.

Regarding `Cc1cc(-c2[nH]c3sc(C4CCN(C5COC5)CC4)nc3c2C(C)C)cn2ncnc12` [Example 20, 6-isopropyl-5-(8-methyl-[1,2,4]triazolo[1,5-a]pyridin-6-yl)-2-(1-(oxetan-3-yl)piperidin-4-yl)-4H-pyrrolo[3,2-d]thiazole], the IC50 in test [1] turned out to be 3.69 nM; in test [2], 8.06 nM; in test [3], 16100 nM.

`Cc1cc(-c2[nH]c3sc(C4CCN(C(C)C)CC4)nc3c2C(C)C)cn2ncnc12` [Example 21, 6-isopropyl-2-(1-isopropylpiperidin-4-yl)-5-(8-methyl-[1,2,4]triazolo[1,5-a]pyridin-6-yl)-4H-pyrrolo[3,2-d]thiazole]: the values for the IC50 in test [1], in test [2] and in test [3] were 6.89 nM, 39 nM and more than 50000 nM, respectively.

Take `Cc1cc(-c2[nH]c3sc(C4CCN(C5CCOCC5)CC4)nc3c2C(C)C)cn2ncnc12` [Example 22, 6-isopropyl-5-(8-methyl-[1,2,4]triazolo[1,5-a]pyridin-6-yl)-2-(1-(tetrahydro-2H-pyran-4-yl)piperidin-4-yl)-4H-pyrrolo[3,2-d]thiazole]: the results for the IC50 in test [1], in test [2] and in test [3] were 1.23 nM, 0.9 nM and 4850 nM, respectively.

Regarding `Cc1cc(-c2[nH]c3sc(C4CCN(CC5(C)COC5)CC4)nc3c2C(C)C)cn2ncnc12` [Example 23, 6-isopropyl-5-(8-methyl-[1,2,4]triazolo[1,5-a]pyridin-6-yl)-2-(1-((3-methyloxetan-3-yl)methyl)piperidin-4-yl)-4H-pyrrolo[3,2-d]thiazole], the results for the 50% inhibitory concentration (IC50) in test [1], in test [2] and in test [3] were 1.27 nM, 1.01 nM and 4770 nM, respectively.

Regarding `Cc1cc(-c2[nH]c3sc(C4CCN(CC(=O)N(C)C)CC4)nc3c2C(C)C)cc(C)n1` [Example 24, 2-(4-(5-(2,6-dimethylpyridin-4-yl)-6-isopropyl-4H-pyrrolo[3,2-d]thiazol-2-yl)piperidin-1-yl)-N,N-dimethylacetamide], the IC50 in test [1] was determined as 43.4 nM; in test [2], 12.5 nM; in test [3] it was 793 nM.

Take `Cc1cc(-c2[nH]c3sc(C4CCN(C(C)C)CC4)nc3c2C(C)C)cc(C)n1` [Example 25, 5-(2,6-dimethylpyridin-4-yl)-6-isopropyl-2-(1-isopropylpiperidin-4-yl)-4H-pyrrolo[3,2-d]thiazole]: the IC50 was found to be 25.6 nM in test [1], 10.3 nM in test [2] and 447 nM in test [3].

As for `Cc1cc(-c2[nH]c3sc(C4CCN(C5CCOCC5)CC4)nc3c2C(C)C)cc(C)n1` [Example 26, 5-(2,6-dimethylpyridin-4-yl)-6-isopropyl-2-(1-(tetrahydro-2H-pyran-4-yl)piperidin-4-yl)-4H-pyrrolo[3,2-d]thiazole], the half-maximal inhibitory concentration (IC50) in test [1] worked out at 442 nM; in test [2], 413 nM; in test [3], 7210 nM.

Regarding `Cc1cc(-c2[nH]c3sc(C4CCN(CC5(C)COC5)CC4)nc3c2C(C)C)cc(C)n1` [Example 27, 5-(2,6-dimethylpyridin-4-yl)-6-isopropyl-2-(1-((3-methyloxetan-3-yl)methyl)piperidin-4-yl)-4H-pyrrolo[3,2-d]thiazole], the IC50 in test [1] was 29.7 nM; in test [2] it was 2.87 nM; in test [3], 388 nM.

As to `Cc1cc(-c2[nH]c3sc(C4CCN(C(=O)CN(C)C)CC4)nc3c2C(C)C)cc(C)n1` [Example 28, 2-(dimethylamino)-1-(4-(5-(2,6-dimethylpyridin-4-yl)-6-isopropyl-4H-pyrrolo[3,2-d]thiazol-2-yl)piperidin-1-yl)ethan-1-one], the figures for the IC50 in test [1], in test [2] and in test [3] were 39 nM, 265 nM and 645 nM, respectively.

A word on the IC50: it is the concentration that inhibits the measured activity by half.
